# Test results taken from US9051310B2, “Nicotinamide derivative or salt thereof” (FUJIFILM Corporation, priority 2011, dated 2015).
# Assays:
# [1] = tested on: mouse thrombocytopenia induced by anti-mouse CD41 antibody; assay: Mouse thrombocytopenia model; format: in vivo; conditions: Platelet, female BALB/c mice, 50 mg/kg 1 hour before anti-CD41 antibody, blood sampling 4 hours after antibody, read-out: improvement of platelet count compared with the control group
# Experimental: Test compounds were tested to examine effects upon mouse thrombocytopenia. Each test compound (50 mg/kg) was administered to 5- to 7-week-old female BALB/c mice (Charles River Laboratories Japan, Inc.). One hour thereafter, an anti-mouse CD41 ([…]) antibody (SCB) (1 μg (200 μl)) was intravenously administered to each mouse so as to induce thrombocytopenia. Four hours after administration of the anti-CD41 antibody, blood sampling from the postcava was performed. The platelet count was determined using an automated hematology analyzer.
# [2] = target: T1, glutathione S-transferase (GST)-linked full-length human Syk protein (Homo sapiens, UniProt P43405); assay: Syk enzyme assay; format: biochemical; conditions: 0.83 nM Syk, time-resolved fluorescence; read-out: IC50 of Syk-inhibitory activity
# T1 construct: glutathione S-transferase (GST)-linked full-length human Syk protein; purchased Carna Biosciences; host or cells: Baculovirus expression system
# Outline: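 Phosphotyrosine on a biotin-peptide substrate (0.5 μM) was read by time-resolved fluorescence at 615 and 665 nm with Eu-anti-pTyr antibody and APC-streptavidin after 1 h EDTA stop.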
# [3] = tested on: THP-1 cells (TNFα secretion on human IgG-coated plate); assay: TNFα generation assay; format: cell-based; conditions: IFN-γ differentiated THP-1 cells, 7 hours, AlphaLISA, read-out: IC50 of TNFα generation inhibitory activity
# Outline: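 Secreted TNFα was measured by AlphaLISA after 7 h of culture on human IgG-coated wells (coating at 10 μg/ml), with 5×10^4 cells/well. Before plating, the cells had been treated with compound for 30 min at room temperature. The cells were macrophage-like THP-1, produced by a 2-day exposure to 10 ng/ml IFN-γ.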
# [4] = tested on: THP-1 cells (phagocytosis of opsonized Escherichia coli); assay: Antibody-dependent phagocytosis assay; format: cell-based; conditions: Homo sapiens; IFNγ differentiated THP-1 cells, opsonized pHrodo Escherichia coli, 3 hours; read-out: IC50 upon phagocytosis inhibition
# Outline: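 Read-out was imaging-based quantification of pHrodo-labeled, antibody-opsonized E. coli taken up by Calcein AM-stained viable cells after 3 h at 37° C. The cells were IFNγ-differentiated THP-1 macrophages (10 ng/ml, 2 days), preincubated with compound for 30 min at room temperature.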
Compound,IC50 [2],IC50 [3],IC50 [4],change in vivo at 50 mg/kg [1]
"C[C@H](N)[C@H](Nc1nc(Nc2cnc(N3CCOCC3)c(F)c2)c(C(N)=O)cc1F)C1CCC1 [Example 2-77, 6-(((1R,2S)-2-amino-1-cyclobutylpropyl)amino)-5-fluoro-2-((5-fluoro-6-morpholinopyridin-3-yl)amino)nicotinamide]",10 to 50 nM,130 to 200 nM,< 1000 nM,≥ 50%
"Cc1ncc(Nc2nc(N[C@@H]3CCCC[C@@H]3N)c(F)cc2C(N)=O)cc1F [Example 2-142, 6-(((1R,2S)-2-aminocyclohexyl)amino)-5-fluoro-2-((5-fluoro-6-methylpyridin-3-yl)amino)nicotinamide]",10 to 50 nM,65 to 130 nM,< 1000 nM,≥ 50%
"CC[C@H](N)[C@H](Nc1nc(Nc2cnc(C)c(-n3nccn3)c2)c(C(N)=O)cc1F)C1CC1 [Example 2-358, 6-(((1R,2S)-2-amino-1-cyclopropylbutyl)amino)-5-fluoro-2-((6-methyl-5-(2H-1,2,3-triazol-2-yl)pyridin-3-yl)amino)nicotinamide]",10 to 50 nM,,1000 to 3000 nM,≥ 50%
"CC[C@H](N)[C@@H](C)Nc1nc(Nc2ccc3c(c2)c(N(C)C)nn3C)c(C(N)=O)cc1F [Example 2-91, 6-(((2R,3S)-3-aminopentan-2-yl)amino)-2-((3-(dimethylamino)-1-methyl-1H-indazol-5-yl)amino)-5-fluoronicotinamide]",10 to 50 nM,130 to 200 nM,1000 to 3000 nM,≥ 50%
"COc1ccc(Nc2nc(N[C@H](C3CC3)[C@H](C)N)c(F)cc2C(N)=O)cc1OC [Example 2-48, 6-(((1R,2S)-2-amino-1-cyclopropylpropyl)amino)-2-((3,4-dimethoxyphenyl)amino)-5-fluoronicotinamide]",< 10 nM,65 to 130 nM,< 1000 nM,≥ 50%
"C[C@H](N)[C@H](Nc1nc(Nc2cc(F)c3c(c2)c(N(C)C)nn3C)c(C(N)=O)cc1F)C1CCC1 [Example 2-192, 6-(((1R,2S)-2-amino-1-cyclobutylpropyl)amino)-2-((3-(dimethylamino)-7-fluoro-1-methyl-1H-indazol-5-yl)amino)-5-fluoronicotinamide]",< 10 nM,,1000 to 3000 nM,≥ 50%
"CCn1ncc2cc(Nc3nc(N[C@@H]4CCOC[C@@H]4N)c(F)cc3C(N)=O)ccc21 [Example 2-326, 6-(((3R,4R)-3-aminotetrahydro-2H-pyran-4-yl)amino)-2-((1-ethyl-1H-indazol-5-yl)amino)-5-fluoronicotinamide]",< 10 nM,< 65 nM,,≥ 50%
"C[C@H](N)[C@H](Nc1nc(Nc2ccc3c(c2)c(N(C)C)nn3C)c(C(N)=O)cc1F)C1CCC1 [Example 2-89, 6-(((1R,2S)-2-amino-1-cyclobutylpropyl)amino)-2-((3-(dimethylamino)-1-methyl-1H-indazol-5-yl)amino)-5-fluoronicotinamide]",< 10 nM,,1000 to 3000 nM,≥ 50%

# Second part, led by results:
IC50 [2],IC50 [3],IC50 [4],Compound,change in vivo at 50 mg/kg [1]
< 10 nM,,1000 to 3000 nM,"COCCn1ncc2c(Nc3nc(N[C@@H]4CCOC[C@@H]4N)c(F)cc3C(N)=O)cccc21 [Example 2-331, 6-(((3R,4R)-3-aminotetrahydro-2H-pyran-4-yl)amino)-5-fluoro-2-((1-(2-methoxyethyl)-1H-indazol-4-yl)amino)nicotinamide]",≥ 50%
< 10 nM,,< 1000 nM,"C[C@H](N)[C@@H](CC1CC1)Nc1nc(Nc2ccc3c(c2)c(N(C)C)nn3C)c(C(N)=O)cc1F [Example 2-2, 6-(((2R,3S)-3-amino-1-cyclopropylbutan-2-yl)amino)-2-((3-(dimethylamino)-1-methyl-1H-indazol-5-yl)amino)-5-fluoronicotinamide]",≥ 50%
< 10 nM,< 65 nM,,"Cc1nn(CC(F)F)c2ccc(Nc3nc(N[C@@H]4CCOC[C@@H]4N)c(F)cc3C(N)=O)cc12 [Example 2-328, 6-(((3R,4R)-3-aminotetrahydro-2H-pyran-4-yl)amino)-2-((1-(2,2-difluoroethyl)-3-methyl-1H-indazol-5-yl)amino)-5-fluoronicotinamide]",≥ 50%
< 10 nM,130 to 200 nM,< 1000 nM,"COCCn1nc(OC(F)F)c2cc(Nc3nc(N[C@@H]4CCCC[C@@H]4N)c(F)cc3C(N)=O)ccc21 [Example 2-174, 6-(((1R,2S)-2-aminocyclohexyl)amino)-2-((3-(difluoromethoxy)-1-(2-methoxyethyl)-1H-indazol-5-yl)amino)-5-fluoronicotinamide]",≥ 50%
< 10 nM,,< 1000 nM,"COCCn1nc(OC(F)F)c2cc(Nc3nc(N[C@@H]4CCOC[C@@H]4N)c(F)cc3C(N)=O)ccc21 [Example 2-352, 6-(((3R,4R)-3-aminotetrahydro-2H-pyran-4-yl)amino)-2-((3-(difluoromethoxy)-1-(2-methoxyethyl)-1H-indazol-5-yl)amino)-5-fluoronicotinamide]",≥ 50%
< 10 nM,< 65 nM,< 1000 nM,"C[C@H](N)[C@H](Nc1nc(Nc2cc(F)c3c(c2)c(N(C)C)nn3C)c(C(N)=O)cc1F)C1CC1 [Example 2-188, 6-(((1R,2S)-2-amino-1-cyclopropylpropyl)amino)-2-((3-(dimethylamino)-7-fluoro-1-methyl-1H-indazol-5-yl)amino)-5-fluoronicotinamide]",≥ 50%
< 10 nM,65 to 130 nM,< 1000 nM,"COCCn1nc(OC)c2cc(Nc3nc(N[C@@H]4CCCC[C@@H]4N)c(F)cc3C(N)=O)ccc21 [Example 2-123, 6-(((1R,2S)-2-aminocyclohexyl)amino)-5-fluoro-2-((3-methoxy-1-(2-methoxyethyl)-1H-indazol-5-yl)amino)nicotinamide]",≥ 50%
< 10 nM,65 to 130 nM,< 1000 nM,"Cc1cc(Nc2nc(N[C@H](CC(C)C)[C@H](C)N)c(F)cc2C(N)=O)cnc1C [Example 2-18, 6-(((2S,3R)-2-amino-5-methylhexan-3-yl)amino)-2-((5,6-dimethylpyridin-3-yl)amino)-5-fluoronicotinamide]",≥ 50%
< 10 nM,130 to 200 nM,< 1000 nM,"Cn1nc(OC(F)F)c2cc(Nc3nc(N[C@@H]4CCOC[C@@H]4N)c(F)cc3C(N)=O)ccc21 [Example 2-348, 6-(((3R,4R)-3-aminotetrahydro-2H-pyran-4-yl)amino)-2-((3-(difluoromethoxy)-1-methyl-1H-indazol-5-yl)amino)-5-fluoronicotinamide]",≥ 50%
< 10 nM,65 to 130 nM,< 1000 nM,"CN(C)c1nn(C)c2c(F)cc(Nc3nc(N[C@@H]4CCOC[C@@H]4N)c(F)cc3C(N)=O)cc12 [Example 2-213, 6-(((3R,4R)-3-aminotetrahydro-2H-pyran-4-yl)amino)-2-((3-(dimethylamino)-7-fluoro-1-methyl-1H-indazol-5-yl)amino)-5-fluoronicotinamide]",≥ 50%
